{"source": "patent US10168342B2", "about": "“Lipid probes and uses thereof” (THE SCRIPPS RESEARCH INSTITUTE, priority 2015, dated 2019)", "experiment_in_all_cases": "isoTOP-ABPP mapping of AEA-DA-modified peptides in Neuro2a cells", "type_in_all_cases": "cell-based", "key": {"[1]": {"target": "T1, AEA-DA-modified peptides in Neuro2a cells (Mus musculus, UniProt Q8BVU5)", "T1 construct": "endogenous in cells; host or cells: Neuro2a", "T1 sequence (Q8BVU5 47-350)": "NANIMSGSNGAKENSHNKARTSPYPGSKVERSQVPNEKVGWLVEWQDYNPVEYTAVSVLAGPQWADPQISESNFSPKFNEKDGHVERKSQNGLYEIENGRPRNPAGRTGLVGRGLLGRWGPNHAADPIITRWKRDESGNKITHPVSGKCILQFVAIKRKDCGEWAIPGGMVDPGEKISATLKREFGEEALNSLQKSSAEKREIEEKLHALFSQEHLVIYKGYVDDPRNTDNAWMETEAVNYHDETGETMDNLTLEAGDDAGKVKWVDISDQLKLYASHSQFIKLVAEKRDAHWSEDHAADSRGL", "details": "AEA-DA-modified peptide NUDT9 Q8BVU5 230-242, SEQ ID NO 73; probe 100 μM, 12 replicates"}, "[2]": {"target": "T2, AEA-DA-modified peptides in Neuro2a cells (Mus musculus, UniProt Q8BWM0)", "T2 construct": "endogenous in cells; host or cells: Neuro2a", "T2 sequence (Q8BWM0 whole entry)": "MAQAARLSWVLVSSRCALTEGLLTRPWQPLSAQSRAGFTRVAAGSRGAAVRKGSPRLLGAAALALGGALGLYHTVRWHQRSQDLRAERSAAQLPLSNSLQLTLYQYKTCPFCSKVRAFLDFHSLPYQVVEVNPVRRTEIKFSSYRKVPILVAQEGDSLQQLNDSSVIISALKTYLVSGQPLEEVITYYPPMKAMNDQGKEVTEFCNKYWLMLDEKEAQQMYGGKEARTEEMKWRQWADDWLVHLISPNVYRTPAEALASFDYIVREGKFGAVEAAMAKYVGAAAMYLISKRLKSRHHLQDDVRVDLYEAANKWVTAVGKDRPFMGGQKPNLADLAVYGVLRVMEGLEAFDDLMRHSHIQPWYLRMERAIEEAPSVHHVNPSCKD", "details": "AEA-DA-modified peptide PTGES2 Q8BWM0 269-279, SEQ ID NO 92; probe 100 μM, 12 replicates"}, "[3]": {"target": "T3, AEA-DA-modified peptides in Neuro2a cells (Mus musculus, UniProt P15626)", "T3 construct": "endogenous in cells; host or cells: Neuro2a", "T3 sequence (P15626 whole entry)": "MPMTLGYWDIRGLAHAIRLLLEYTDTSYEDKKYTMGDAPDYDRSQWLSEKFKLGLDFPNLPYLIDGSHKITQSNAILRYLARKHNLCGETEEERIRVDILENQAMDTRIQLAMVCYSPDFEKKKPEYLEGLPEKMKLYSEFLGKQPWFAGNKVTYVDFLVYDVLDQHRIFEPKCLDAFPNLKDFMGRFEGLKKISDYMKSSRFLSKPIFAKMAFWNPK", "details": "AEA-DA-modified peptide GSTM2 P15626 109-123, SEQ ID NO 45; probe 100 μM, 12 replicates"}, "[4]": {"target": "T4, AEA-DA-modified peptides in Neuro2a cells (Mus musculus, UniProt Q99JY4)", "T4 construct": "endogenous in cells; host or cells: Neuro2a", "T4 sequence (Q99JY4 whole entry)": "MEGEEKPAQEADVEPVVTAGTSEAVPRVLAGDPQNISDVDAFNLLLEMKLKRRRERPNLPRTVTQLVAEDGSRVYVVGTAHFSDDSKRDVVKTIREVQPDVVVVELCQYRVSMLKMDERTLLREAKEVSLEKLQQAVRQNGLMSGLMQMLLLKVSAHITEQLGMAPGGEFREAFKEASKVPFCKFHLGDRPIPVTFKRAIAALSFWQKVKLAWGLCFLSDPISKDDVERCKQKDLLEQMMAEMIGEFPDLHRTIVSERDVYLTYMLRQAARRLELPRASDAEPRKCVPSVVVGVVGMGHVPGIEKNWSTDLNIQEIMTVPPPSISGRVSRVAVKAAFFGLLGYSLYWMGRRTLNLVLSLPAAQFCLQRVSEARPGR", "details": "AEA-DA-modified peptide TRABD Q99JY4 234-253, SEQ ID NO 116; probe 100 μM, 12 replicates"}, "[5]": {"target": "T5, AEA-DA-modified peptides in Neuro2a cells (Mus musculus, UniProt P81117)", "T5 construct": "endogenous in cells; host or cells: Neuro2a", "T5 sequence (P81117 25-420)": "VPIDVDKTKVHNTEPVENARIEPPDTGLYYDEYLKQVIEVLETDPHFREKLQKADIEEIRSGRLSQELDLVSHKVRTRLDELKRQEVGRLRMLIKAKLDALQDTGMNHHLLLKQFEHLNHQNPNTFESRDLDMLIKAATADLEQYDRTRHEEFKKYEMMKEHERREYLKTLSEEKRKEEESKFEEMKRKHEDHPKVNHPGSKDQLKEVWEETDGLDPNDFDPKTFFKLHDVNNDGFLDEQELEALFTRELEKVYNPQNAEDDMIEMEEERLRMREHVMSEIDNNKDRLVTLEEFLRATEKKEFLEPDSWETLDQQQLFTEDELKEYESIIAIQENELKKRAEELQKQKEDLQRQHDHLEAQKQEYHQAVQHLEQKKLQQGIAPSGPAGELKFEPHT", "details": "AEA-DA-modified peptide NUCB2 P81117 60-73, SEQ ID NO 72; probe 100 μM, 12 replicates"}, "[6]": {"target": "T6, AEA-DA-modified peptides in Neuro2a cells (Mus musculus, UniProt P61205)", "T6 construct": "endogenous in cells; host or cells: Neuro2a", "T6 sequence (P61205 whole entry)": "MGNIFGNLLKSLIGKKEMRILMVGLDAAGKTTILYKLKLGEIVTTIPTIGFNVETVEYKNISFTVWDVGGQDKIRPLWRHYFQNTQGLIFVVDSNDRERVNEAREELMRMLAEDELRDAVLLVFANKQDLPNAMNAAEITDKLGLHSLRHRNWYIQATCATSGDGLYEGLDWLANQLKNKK", "details": "AEA-DA-modified peptide ARF3 P61205 39-60, SEQ ID NO 11; probe 100 μM, 12 replicates"}, "[7]": {"target": "T7, AEA-DA-modified peptides in Neuro2a cells (Mus musculus, UniProt O35737)", "T7 construct": "endogenous in cells; host or cells: Neuro2a", "T7 sequence (O35737 whole entry)": "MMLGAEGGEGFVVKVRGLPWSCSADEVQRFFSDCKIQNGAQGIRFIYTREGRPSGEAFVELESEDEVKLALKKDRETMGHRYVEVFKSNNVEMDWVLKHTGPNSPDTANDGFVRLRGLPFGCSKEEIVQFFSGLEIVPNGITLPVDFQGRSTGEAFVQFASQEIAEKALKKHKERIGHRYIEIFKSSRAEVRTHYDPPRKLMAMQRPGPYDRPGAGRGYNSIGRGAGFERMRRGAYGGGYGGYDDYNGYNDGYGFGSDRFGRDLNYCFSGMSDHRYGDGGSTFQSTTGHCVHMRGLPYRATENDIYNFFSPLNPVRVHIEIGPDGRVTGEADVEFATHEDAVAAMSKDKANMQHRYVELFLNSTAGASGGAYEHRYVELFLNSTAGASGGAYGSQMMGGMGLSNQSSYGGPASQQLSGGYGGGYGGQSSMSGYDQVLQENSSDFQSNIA", "details": "AEA-DA-modified peptide HNRNPH 1 O35737 50-69, SEQ ID NO 49; probe 100 μM, 12 replicates"}, "[8]": {"target": "T8, AEA-DA-modified peptides in Neuro2a cells (Mus musculus, UniProt Q78ZA7)", "T8 construct": "endogenous in cells; host or cells: Neuro2a", "T8 sequence (Q78ZA7 whole entry)": "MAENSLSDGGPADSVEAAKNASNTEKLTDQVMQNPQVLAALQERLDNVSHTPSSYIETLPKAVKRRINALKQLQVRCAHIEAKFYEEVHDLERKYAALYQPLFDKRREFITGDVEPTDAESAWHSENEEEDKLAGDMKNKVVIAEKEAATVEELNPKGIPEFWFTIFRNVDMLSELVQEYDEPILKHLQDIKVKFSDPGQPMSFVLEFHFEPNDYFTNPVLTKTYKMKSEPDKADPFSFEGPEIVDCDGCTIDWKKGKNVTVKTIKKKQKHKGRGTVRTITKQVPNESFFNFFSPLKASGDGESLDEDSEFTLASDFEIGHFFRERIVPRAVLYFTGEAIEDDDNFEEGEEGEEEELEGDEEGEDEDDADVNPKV", "details": "AEA-DA-modified peptide NAP1L4 Q78ZA7 84-94, SEQ ID NO 66; probe 100 μM, 12 replicates"}, "[9]": {"target": "T9, AEA-DA-modified peptides in Neuro2a cells (Mus musculus, UniProt Q64310)", "T9 construct": "endogenous in cells; host or cells: Neuro2a", "T9 sequence (Q64310 whole entry)": "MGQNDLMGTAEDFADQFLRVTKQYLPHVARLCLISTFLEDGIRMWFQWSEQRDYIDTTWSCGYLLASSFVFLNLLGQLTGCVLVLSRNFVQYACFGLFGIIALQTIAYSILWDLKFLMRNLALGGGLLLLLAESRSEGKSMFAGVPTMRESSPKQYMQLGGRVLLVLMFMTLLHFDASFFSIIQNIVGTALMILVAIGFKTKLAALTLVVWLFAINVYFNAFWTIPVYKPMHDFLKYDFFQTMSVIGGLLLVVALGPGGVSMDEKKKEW", "details": "probe 100 μM, 12 replicates"}, "[10]": {"target": "T10, AEA-DA-modified peptides in Neuro2a cells (Mus musculus, UniProt Q8R2Y8)", "T10 construct": "endogenous in cells; host or cells: Neuro2a", "T10 sequence (Q8R2Y8 whole entry)": "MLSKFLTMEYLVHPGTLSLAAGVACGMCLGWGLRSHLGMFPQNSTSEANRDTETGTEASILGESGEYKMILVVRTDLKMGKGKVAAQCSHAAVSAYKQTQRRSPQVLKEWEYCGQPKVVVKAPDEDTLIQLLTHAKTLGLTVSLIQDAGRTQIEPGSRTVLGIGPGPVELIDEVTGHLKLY", "details": "AEA-DA-modified peptide PTRH2 Q8R2Y8 35-69, SEQ ID NO 93; probe 100 μM, 12 replicates"}, "[11]": {"target": "T11, AEA-DA-modified peptides in Neuro2a cells (Mus musculus, UniProt Q9CPQ8)", "T11 construct": "endogenous in cells; host or cells: Neuro2a", "T11 sequence (Q9CPQ8 whole entry)": "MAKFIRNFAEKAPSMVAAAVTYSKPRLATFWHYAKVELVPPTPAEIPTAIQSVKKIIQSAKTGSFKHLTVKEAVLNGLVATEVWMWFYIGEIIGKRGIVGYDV", "details": "AEA-DA-modified peptide ATP5L Q9CPQ8 36-55, SEQ ID NO 19; probe 100 μM, 12 replicates"}}, "data": [{"smiles": "C#CCCCC1(CC/C=C\\C/C=C\\C/C=C\\CCCC(=O)NCCO)N=N1", "note": "[AEA-DA, (5Z,8Z,11Z)-N-(2-hydroxyethyl)-14-(3-(pent-4-yn-1-yl)-3H-diazirin-3-yl)tetradeca-5,8,11-trienamide]", "values": [{"measurement": "Times observed", "setting": "[1]", "value": 7}, {"measurement": "Times observed", "setting": "[2]", "value": 3}, {"measurement": "Times observed", "setting": "[3]", "value": 5}, {"measurement": "Times observed", "setting": "[4]", "value": 4}, {"measurement": "Times observed", "setting": "[5]", "value": 4}, {"measurement": "Times observed", "setting": "[6]", "value": 9}, {"measurement": "Times observed", "setting": "[7]", "value": 9}, {"measurement": "Times observed", "setting": "[8]", "value": 3}, {"measurement": "Times observed", "setting": "[9]; AEA-DA-modified peptide SURF4 Q64310 2-20, SEQ ID NO 108", "value": 10}, {"measurement": "Times observed", "setting": "[9]; AEA-DA-modified peptide SURF4 Q64310 31-44, SEQ ID NO 109", "value": 3}, {"measurement": "Times observed", "setting": "[10]", "value": 2}, {"measurement": "Times observed", "setting": "[11]", "value": 3}]}]}
